According to patent US7442375B2, “Compositions of beta-defensin inducing agents” (Case Western Reserve University, priority 2002, dated 2008):
Read-outs that look alike come from different tables or passages of the source. Positions of bridges follow the written chain, without caps; N, C: chain ends. No end group written: not given here.

How the values were obtained:
hBD-2 mRNA [1] = settings: 1.7 mM in culture medium, epidermal cells; cited from earlier work
hBD-3 mRNA [2] = settings: 1.7 mM in culture medium, epidermal cells; cited from earlier work
[3] = tested on: epithelial beta defensin genes; settings: appears to involve NF-kappaB/rel; cited from earlier work
hBD-1 mRNA = test: Real-time RT-PCR assay to quantify hBD mRNA in NHOEC; type: cell-based; settings: normal human oral epithelium and cells; positive control of FIG. 3
Procedure: (§1) NHOEC monolayers were exposed to X4 HIV-1 strains B-HXB2 and B-NL4-3 or R5 strains B-93US142 and B-92US660 at an MOI of 0.01 infectious unit/cell. After 48 h, hBD-1, -2, and -3 mRNA expression was determined by real-time PCR. (a) Standard curves generated using the relationship of known number of input templates to the cycle threshold (i.e., PCR cycle number at which the mean fluorescence increases to 10 SD above baseline). Cycle threshold is directly proportional to the log of the input copy equivalents. Linear dynamic ranges and regression values are indicated. (b) Quantification of hBD mRNA in the presence and absence of HIV-1. (c) Comparison of hBD expression relative to the uninfected culture. PMA, phorbol myristate acetate, positive control. Results are representative of three independent experiments.
(§2) RNA was extracted from NHOEC monolayers post HIV-1 challenge [multiplicity of infection (MOI), 0.01 infectious unit/cell] using TRIzol according to the manufacturer's protocol (Invitrogen Life Technologies, Carlsbad, Calif., USA). Human keratin 5 RNA was used to normalize RNA content in each preparation. Intron spanning primers used and PCR conditions for these reactions have been described previously [Krisanaprakorkit et al., 1998 and 2000; Harder et al.]. Each 25-μl PCR mixture consisted of 125 ng RNA, primers (0.4 μM each), 0.4 mM dNTPs, 5 mM MgCl2, a mixture of reverse transcriptase and Taq DNA polymerase, 1 3 PCR buffer, RNase inhibitor (5 U), and SYBR Green dye diluted 1:2500 (Sigma, St. Louis, Mo., USA) as described [Weber et al.]. Standard curves were constructed using RNA generated by transcribing hBD-1, -2, or -3 plasmids using the RiboProbe in vitro transcription system (Promega, Madison, Wis., USA). Concentration of mRNAs was determined by spectrometry at 260 nm. […]
(§3) NHOEC monolayers were challenged with four different HIV-1 strains representing both viral bio-phenotypes (i.e., SI/X4, B-HXB2 and B-NL4-3; NSI/R5, B-93US142 and B-92US660) Forty-eight hours postinfection, hBD-1, -2, and -3 mRNA expression was measured by real-time PCR. […]

hBD-2 mRNA [4] = test: as above; type: cell-based; settings: normal human oral epithelium and cells; positive control of FIG. 3
Procedure: as §1, §2, §3

hBD-3 mRNA [5] = test: as above; type: cell-based; settings: normal human oral epithelium and cells; positive control of FIG. 3
Procedure: as §1, §2, §3

HIV-1 R5 B-93US142 = type: cell-based
Procedure: (§4) HIV-1 strains (X4 HXB2 and R5 93US142) were incubated in 10 mM PB with increasing concentrations of hBD and used to infect GHOST X4/R5 cells. (a) Qualitative determination of HIV-1 infection, measured by GFP fluorescence, in the absence (−C) and presence (+C) of virus preincubated in 10 mM PB. (b) Anti-HIV-1 activity of hBD in GHOST X4/R5 cells using fluorescence microscopy. (c) Anti-HIV-1 activity of hBD measured by RT activity in cell-free culture supernatant, relative to the positive control (i.e., HIV-1 infection in the absence of hBD). (d) Antiretroviral activity of hBD against CXCR4- and CCR5-tropic HIV-1 strains in three different environments: DMEM+10% FBS (complete medium); DMEM alone (Medium no FBS); 10 mM PB. Viruses were incubated with 20 μg/ml of each hBD for 1 h in each condition and used to infect CEM X4/R5 cells as described. Results are representative of three independent experiments.
(§5) HIV-1 isolates were incubated with increasing concentrations (5-40 μg/ml) of hBD-1, -2, and -3, in three different conditions: high salt complete medium (RPMI-1640 or DMEM supplemented with 10% fetal bovine serum, FBS); high salt medium in the absence of FBS; or low salt medium (10 mM phosphate buffer), 37° C. for 1 h. Respective mixtures were used to infect PBMC, Ghost X4/R5 or CEM X4/R5 cells at an MOI of […]. After 2 h incubation at 37° C., 5% CO2, cells were washed three times with phosphate-buffered saline (PBS) and cultured in complete medium for 48 h. In the case of Ghost X4/R5 cells, these were washed, resuspended in PBS, and analyzed by fluorescence microscopy for GFP expression as described [Morner et al.]. Cell-free supernatants from PBMC, Ghost X4/R5 and CEM X4/R5 cultures were used to monitor infectivity by the reverse transcriptase (RT) assay [Quinones-Mateu et al.]. The 50% inhibitory concentration (IC50) of each hBD was determined using X4 or R5 HIV-1 isolates. Viruses (0.01 MOI) were incubated with increasing concentrations of hBD-1, -2, and 3 (up to 40 µg/ml) in low salt medium for 1 h and used to infect CEM X4/R5 cells. After 2 h incubation at 37° C., 5% CO2, cells were washed twice with PBS and cultured in complete medium. Supernatant samples were removed on day 5 post-infection and virus production was measured using […] the RT assay [Id.]. Cytotoxicity of hBD was quantified by determining the number of viable cells using a tetrazolium-based colorimetric (MTT) assay [Pauwels et al.].
(§6) Since the antibacterial activity of beta-defensins is sensitive to high salt and serum concentrations, the anti-HIV-1 activity of hBD was initially evaluated in a low salt, serum free environment, mimicking oral mucosal conditions [Mandel et al.]. Two HIV-1 isolates (X4 B-HXB2 and R5 B-93US142) were preincubated for 1 h with increasing concentrations of recombinant hBD-1, -2, and -3, in 10 mM phosphate buffer (PB). GHOST CCR5/CXCR4 cells were then exposed to the mixtures for 48 h in complete medium. […] When CXCR4- and CCR5-tropic HIV-1 strains were preincubated with beta-defensins in high salt medium (DMEM) supplemented with 10% FBS, no antiviral effect was detected (FIG. 4d). However, preincubation in DMEM without FBS inhibited replication of X4, but not R5, HIV-1 isolates (FIG. 4d). Under low salt conditions (i.e., 10 mM PB, no FBS) the 50% inhibitory concentration for both agents against X4 and R5 viruses ranged from 9 to 19 μg/ml and 20 to 40 μg/ml, respectively.

HIV-1 X4 B-HXB2 = type: cell-based
Procedure: as §4, §5, §6

CCR5 = CCR5 (Homo sapiens, UniProt P51681); test: Flow cytometric analysis of co-receptor surface expression on unstimulated PBMC; type: cell-based; design: endogenous in cells; host or cells: unstimulated peripheral blood mononuclear cells (PBMC); settings: 30 μg/ml, 3 h, high salt medium without FBS
Chain of CCR5 (P51681 whole entry): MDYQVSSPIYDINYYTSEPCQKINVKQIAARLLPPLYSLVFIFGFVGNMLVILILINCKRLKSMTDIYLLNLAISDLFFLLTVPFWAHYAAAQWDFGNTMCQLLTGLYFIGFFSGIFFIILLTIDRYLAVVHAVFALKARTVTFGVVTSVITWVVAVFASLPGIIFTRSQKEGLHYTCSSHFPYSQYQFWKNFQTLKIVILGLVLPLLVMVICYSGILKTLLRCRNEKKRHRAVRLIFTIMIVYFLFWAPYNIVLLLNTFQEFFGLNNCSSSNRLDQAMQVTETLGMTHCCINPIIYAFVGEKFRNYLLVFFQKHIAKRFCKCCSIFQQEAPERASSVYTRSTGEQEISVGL
Procedure: (§7) Unstimulated PBMC were treated for 3 hrs with hBD-1, -2, or -3 (30 μg/ml) in DMEM (high salt) in the absence of FBS. The CXCR4 natural ligand SDF-1AE (2 μg/ml) and the CCR5 antagonist PSC-RANTES (100 nM) were used as positive controls. CXCR4 and CCR5 surface expression was calculated using known ratios of QuantiBRITE-PE beads (Becton Dickenson) by flow cytometry. Results are the means of seven experiments±SD.
(§8) Unstimulated PBMC were treated with 30 μg/ml hBD-1, -2, or -3 in high salt medium (RPMI-1640) in the absence of FBS, 3 h. The CXCR4 natural ligand SDF-1α (R&D Systems, Minneapolis, Minn., USA) and the CCR5 antagonist PSC-RANTES were used as controls. Cells were incubated with peridinin chlorophyll protein-conjugated anti-human CD4 antibody, and either phycoerythrin (PE)-conjugated anti-human CXCR4 antibody, PE-conjugated anti-human CCR5 antibody, or PE-conjugated mouse immunoglobulin G2a (IgG2a), isotype standard (PharmMingen, San Diego, Calif., USA) [Salkowitz et al.]. Fluorescence intensity was reported as receptor density by quantitative flow cytometry (FACSCaliber; Becton Dickenson, San Jose, Calif., USA) [Iyer et al.]. Data were analyzed using CELLQuest software (Becton Dickenson).
(§9) Surface expression of CXCR4 was decreased by 51%±18% and 52%±20% (SD) respectively after incubation with 30 μg/ml of hBD-2 or hBD-3 (FIG. 5).

CXCR4 = CXCR4 (Homo sapiens, UniProt P61073); test: as above; type: cell-based; design: endogenous in cells; host or cells: unstimulated peripheral blood mononuclear cells (PBMC); settings: 30 μg/ml, 3 h, high salt medium without FBS
Chain of CXCR4 (P61073 whole entry): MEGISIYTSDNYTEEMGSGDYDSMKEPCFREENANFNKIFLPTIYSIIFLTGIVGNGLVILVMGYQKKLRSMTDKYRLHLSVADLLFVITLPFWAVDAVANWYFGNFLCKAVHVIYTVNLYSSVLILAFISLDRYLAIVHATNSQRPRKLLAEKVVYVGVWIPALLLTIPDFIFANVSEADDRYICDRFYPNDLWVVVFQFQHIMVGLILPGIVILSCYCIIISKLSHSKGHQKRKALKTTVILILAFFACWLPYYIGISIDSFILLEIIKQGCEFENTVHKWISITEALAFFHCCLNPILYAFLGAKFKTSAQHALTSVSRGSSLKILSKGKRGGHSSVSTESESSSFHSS
Procedure: as §7, §8, §9

[6] = 20 μg/ml, preincubation in 10 mM PB
[7] = virus preincubated 1 h with hBD in 10 mM PB, GHOST cells 48 h, GFP fluorescence

[Ca+2] [calcium]
HBD-2 mRNA expression (hBD-2 mRNA [1]): sufficient to induce | HBD-3 mRNA expression (hBD-3 mRNA [2]): sufficient to induce

CC[C@H](C)[C@H](N)C(=O)O [isoleucine-1]
transcription of epithelial beta defensin genes [3]: can activate transcription

CCCCCCCCCCCCCC(=O)O[C@@H]1[C@@H](C)[C@@]2(O)[C@@H](C=C(CO)C[C@]3(O)C(=O)C(C)=C[C@@H]23)[C@@H]2C(C)(C)[C@]12OC(C)=O [phorbol myristate acetate]
HBD-1 mRNA expression (hBD-1 mRNA): not | HBD-2 mRNA expression (hBD-2 mRNA [4]): induces | HBD-3 mRNA expression (hBD-3 mRNA [5]): induces

GIGDPVTCLKSGAICHPVFCPRRYKQIGTCGLPGTKCCKKP (disulfide 8-37, 15-30, 20-38) [hBD-2]
inhibition (RT activity relative to positive control) (HIV-1 R5 B-93US142; [6]): 15% | inhibition (RT activity relative to positive control) (HIV-1 X4 B-HXB2; [6]): 61%

hBD-1: Recombinant human β-defensin 1 produced from infection of Sf21 cells with baculovirus constructs (DHYNCVSSGGQCLYSACPIFTKIQGTCYRGKAKCCK; ends and bridges not checked; cysteine pairing not given here; UniProt P60022 33-68, looked up)
anti-HIV-1 activity (HIV-1 R5 B-93US142; [7]): no effect | anti-HIV-1 activity (HIV-1 X4 B-HXB2; [7]): no effect | effect on CCR5 expression (CCR5): not altered | effect on surface expression of CXCR4 (CXCR4): did not affect
